Laboratory results from ChEMBL document CHEMBL5465560, “Selectivity Literature for EUbOPEN Chemogenomic Library” (2024).
Blank lines part the entries; values can stand above or below the compound they belong to.

Key:
[1] = target: Serine/threonine-protein kinase N2 (Homo sapiens, UniProt Q16513); experiment: Selectivity interaction (KinomeScan (DiscoverX)) EUB0000666a PKN2; conditions: at 10 µM
[2] = target: Fibroblast growth factor receptor 4 (Homo sapiens, UniProt P22455); experiment: Selectivity interaction (KinomeScan (DiscoverX)) EUB0000607a FGFR4; conditions: at 10 µM
[3] = target: Cyclin-dependent kinase 2 (Homo sapiens, UniProt P24941); experiment: Selectivity interaction (ActivX KiNativ screen (kinase selectivity in THP-1 cell lysates)) EUB0000639a CDK2; format: subcellular; conditions: lysate
[4] = target: Glycogen synthase kinase-3 alpha (Homo sapiens, UniProt P49840); experiment: Selectivity interaction (ActivX KiNativ screen (kinase selectivity in THP-1 cell lysates)) EUB0000639a GSK3A; format: subcellular; conditions: lysate
[5] = target: T1, Serine/threonine-protein kinase Nek1 (Homo sapiens) (UniProt Q96PY6); experiment: Selectivity interaction (ActivX KiNativ screen (kinase selectivity in THP-1 cell lysates)) EUB0000639a NEK1; format: subcellular; conditions: lysate
T1 sequence (whole entry): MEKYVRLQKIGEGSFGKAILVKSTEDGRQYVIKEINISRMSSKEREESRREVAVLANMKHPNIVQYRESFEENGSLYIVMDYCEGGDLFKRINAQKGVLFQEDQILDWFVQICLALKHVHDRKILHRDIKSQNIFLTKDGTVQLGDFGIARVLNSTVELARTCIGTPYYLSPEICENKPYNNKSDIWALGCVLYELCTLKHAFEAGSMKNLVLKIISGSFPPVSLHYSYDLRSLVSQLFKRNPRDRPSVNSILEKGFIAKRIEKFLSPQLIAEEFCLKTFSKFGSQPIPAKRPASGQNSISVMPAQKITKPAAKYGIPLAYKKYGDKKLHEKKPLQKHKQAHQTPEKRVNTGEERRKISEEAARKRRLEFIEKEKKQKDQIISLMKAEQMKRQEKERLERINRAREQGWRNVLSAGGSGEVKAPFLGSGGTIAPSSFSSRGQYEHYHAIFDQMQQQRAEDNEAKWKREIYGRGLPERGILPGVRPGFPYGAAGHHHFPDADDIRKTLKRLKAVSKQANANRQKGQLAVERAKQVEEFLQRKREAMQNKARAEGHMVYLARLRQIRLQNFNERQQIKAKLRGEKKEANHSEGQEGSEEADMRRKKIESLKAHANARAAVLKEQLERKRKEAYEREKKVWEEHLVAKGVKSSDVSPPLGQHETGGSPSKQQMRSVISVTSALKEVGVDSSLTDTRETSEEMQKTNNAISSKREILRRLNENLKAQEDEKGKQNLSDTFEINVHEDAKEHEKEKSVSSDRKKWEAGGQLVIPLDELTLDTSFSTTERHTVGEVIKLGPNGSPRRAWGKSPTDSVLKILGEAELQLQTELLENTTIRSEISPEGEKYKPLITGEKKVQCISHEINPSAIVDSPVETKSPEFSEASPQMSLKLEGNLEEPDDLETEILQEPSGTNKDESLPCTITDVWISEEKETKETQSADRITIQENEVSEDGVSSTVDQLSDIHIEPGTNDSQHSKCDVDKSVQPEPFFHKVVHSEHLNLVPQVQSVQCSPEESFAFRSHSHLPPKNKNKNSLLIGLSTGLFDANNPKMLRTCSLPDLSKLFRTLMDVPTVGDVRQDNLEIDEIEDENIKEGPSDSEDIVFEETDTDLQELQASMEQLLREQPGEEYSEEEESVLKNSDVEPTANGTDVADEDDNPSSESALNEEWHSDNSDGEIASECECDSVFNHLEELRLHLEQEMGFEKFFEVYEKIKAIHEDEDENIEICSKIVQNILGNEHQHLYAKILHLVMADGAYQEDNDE

[6] = target: Calcium/calmodulin-dependent protein kinase type II subunit beta (Homo sapiens) (UniProt Q13554); experiment: Selectivity interaction (Kinase panel (Invitrogen)) EUB0000639a CAMK2B; conditions: at 200 nM
[7] = test system: Phosphatidylinositol 4,5-bisphosphate 3-kinase catalytic subunit alpha isoform (Homo sapiens), P42336 [H1047Y]; conditions: at 10 µM
[8] = target: T2, Ephrin type-A receptor 8 (Homo sapiens) (UniProt P29322); experiment: Selectivity interaction (KinomeScan (DiscoverX)) EUB0000045b EPHA8
T2 sequence (whole entry): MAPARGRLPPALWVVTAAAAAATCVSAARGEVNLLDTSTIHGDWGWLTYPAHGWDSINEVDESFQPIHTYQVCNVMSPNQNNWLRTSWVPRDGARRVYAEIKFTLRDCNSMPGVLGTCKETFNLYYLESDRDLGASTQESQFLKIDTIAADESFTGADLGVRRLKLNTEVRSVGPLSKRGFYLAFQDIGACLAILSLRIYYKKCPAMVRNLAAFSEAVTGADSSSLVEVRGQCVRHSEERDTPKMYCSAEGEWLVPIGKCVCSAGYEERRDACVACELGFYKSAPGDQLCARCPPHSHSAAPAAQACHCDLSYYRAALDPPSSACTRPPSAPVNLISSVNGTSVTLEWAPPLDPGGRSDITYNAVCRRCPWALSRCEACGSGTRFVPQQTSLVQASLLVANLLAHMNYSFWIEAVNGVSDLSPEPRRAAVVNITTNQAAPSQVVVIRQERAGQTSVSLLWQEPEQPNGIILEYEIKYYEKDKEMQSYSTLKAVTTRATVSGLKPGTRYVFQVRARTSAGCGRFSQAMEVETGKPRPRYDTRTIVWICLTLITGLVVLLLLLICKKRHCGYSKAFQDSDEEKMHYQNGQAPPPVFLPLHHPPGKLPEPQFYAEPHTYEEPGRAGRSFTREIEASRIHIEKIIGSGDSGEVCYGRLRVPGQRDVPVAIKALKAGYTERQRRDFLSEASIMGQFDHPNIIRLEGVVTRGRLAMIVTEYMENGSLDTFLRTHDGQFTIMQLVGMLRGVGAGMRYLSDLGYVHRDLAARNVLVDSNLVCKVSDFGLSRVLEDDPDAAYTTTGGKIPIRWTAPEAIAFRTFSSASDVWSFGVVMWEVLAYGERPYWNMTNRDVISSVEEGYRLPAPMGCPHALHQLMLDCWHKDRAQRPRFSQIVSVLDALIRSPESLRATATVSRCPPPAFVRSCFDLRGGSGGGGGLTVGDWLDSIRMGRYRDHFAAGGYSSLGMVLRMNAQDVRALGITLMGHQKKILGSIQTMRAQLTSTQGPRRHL

[9] = test system: Tyrosine-protein kinase ABL1 (Homo sapiens), P00519 [F317I]; conditions: at 10 µM
Tyrosine-protein kinase ABL1 (Homo sapiens), P00519 [F317I], sequence (P00519 whole entry F317I): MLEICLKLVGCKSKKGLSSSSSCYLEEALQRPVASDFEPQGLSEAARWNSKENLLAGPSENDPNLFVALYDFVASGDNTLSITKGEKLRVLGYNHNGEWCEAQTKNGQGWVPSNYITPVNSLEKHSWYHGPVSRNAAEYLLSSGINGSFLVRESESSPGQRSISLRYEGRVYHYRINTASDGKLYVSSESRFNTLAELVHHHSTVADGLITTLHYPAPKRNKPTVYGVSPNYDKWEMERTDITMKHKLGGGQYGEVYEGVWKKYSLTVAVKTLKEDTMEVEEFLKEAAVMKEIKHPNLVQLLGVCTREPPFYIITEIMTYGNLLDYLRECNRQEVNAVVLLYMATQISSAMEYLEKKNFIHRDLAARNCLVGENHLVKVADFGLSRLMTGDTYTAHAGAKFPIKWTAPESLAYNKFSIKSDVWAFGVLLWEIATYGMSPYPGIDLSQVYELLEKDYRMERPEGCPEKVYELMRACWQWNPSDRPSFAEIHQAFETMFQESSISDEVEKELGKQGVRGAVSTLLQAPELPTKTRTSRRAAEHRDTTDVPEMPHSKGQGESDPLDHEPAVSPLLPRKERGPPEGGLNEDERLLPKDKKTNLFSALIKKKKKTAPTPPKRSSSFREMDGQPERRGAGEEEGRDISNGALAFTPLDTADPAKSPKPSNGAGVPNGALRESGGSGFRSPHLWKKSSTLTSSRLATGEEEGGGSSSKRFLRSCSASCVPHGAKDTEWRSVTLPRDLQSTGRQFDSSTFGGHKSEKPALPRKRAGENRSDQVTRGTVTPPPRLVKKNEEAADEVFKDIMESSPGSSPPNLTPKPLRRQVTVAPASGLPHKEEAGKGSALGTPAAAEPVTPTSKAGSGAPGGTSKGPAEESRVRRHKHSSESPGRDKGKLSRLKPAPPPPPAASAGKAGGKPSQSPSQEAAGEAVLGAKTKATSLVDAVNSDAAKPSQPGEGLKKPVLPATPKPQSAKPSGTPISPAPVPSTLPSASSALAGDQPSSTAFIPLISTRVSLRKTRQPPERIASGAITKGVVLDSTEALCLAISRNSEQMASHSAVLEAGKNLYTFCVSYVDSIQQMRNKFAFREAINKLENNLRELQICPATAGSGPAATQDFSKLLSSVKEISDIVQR

Glycogen synthase kinase-3 alpha, sequence (P49840 2-483 limits assumed): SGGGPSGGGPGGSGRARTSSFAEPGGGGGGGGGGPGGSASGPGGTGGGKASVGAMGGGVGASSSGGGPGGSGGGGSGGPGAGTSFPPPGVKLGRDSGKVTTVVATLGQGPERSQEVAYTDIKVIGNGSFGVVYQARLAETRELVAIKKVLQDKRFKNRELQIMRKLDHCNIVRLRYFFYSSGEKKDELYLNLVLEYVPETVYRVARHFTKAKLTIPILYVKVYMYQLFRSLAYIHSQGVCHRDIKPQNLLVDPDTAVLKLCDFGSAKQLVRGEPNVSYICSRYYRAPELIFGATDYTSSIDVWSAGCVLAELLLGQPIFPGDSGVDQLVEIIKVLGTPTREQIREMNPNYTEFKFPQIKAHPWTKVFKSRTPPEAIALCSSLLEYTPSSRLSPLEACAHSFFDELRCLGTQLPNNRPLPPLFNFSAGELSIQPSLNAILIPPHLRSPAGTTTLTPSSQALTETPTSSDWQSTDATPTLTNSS
Serine/threonine-protein kinase N2, sequence (Q16513 whole entry, looked up): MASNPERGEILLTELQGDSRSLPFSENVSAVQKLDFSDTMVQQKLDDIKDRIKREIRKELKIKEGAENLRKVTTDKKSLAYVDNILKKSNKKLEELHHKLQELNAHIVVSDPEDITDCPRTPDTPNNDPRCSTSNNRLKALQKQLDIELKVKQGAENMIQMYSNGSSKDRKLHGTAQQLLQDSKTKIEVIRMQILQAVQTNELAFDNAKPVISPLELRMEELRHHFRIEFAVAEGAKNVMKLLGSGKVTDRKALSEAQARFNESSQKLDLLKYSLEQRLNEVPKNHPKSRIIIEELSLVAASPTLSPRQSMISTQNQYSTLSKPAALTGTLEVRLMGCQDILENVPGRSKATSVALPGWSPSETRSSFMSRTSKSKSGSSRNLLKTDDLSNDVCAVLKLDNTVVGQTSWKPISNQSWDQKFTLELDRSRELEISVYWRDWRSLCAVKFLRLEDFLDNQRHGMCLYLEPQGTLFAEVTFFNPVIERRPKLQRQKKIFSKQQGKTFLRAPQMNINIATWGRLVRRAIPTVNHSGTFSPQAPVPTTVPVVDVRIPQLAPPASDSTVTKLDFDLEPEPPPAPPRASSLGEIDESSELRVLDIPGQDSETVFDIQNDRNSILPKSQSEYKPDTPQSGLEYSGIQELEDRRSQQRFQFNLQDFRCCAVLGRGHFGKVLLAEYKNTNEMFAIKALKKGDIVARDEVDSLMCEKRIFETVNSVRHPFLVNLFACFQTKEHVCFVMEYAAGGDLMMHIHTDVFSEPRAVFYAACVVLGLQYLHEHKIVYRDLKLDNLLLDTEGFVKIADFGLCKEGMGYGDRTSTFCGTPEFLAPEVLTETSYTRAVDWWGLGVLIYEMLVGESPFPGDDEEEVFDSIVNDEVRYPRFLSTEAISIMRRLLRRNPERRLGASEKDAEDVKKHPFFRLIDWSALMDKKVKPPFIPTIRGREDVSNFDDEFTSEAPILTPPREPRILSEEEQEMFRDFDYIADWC
Fibroblast growth factor receptor 4, sequence (P22455 22-802 limits assumed): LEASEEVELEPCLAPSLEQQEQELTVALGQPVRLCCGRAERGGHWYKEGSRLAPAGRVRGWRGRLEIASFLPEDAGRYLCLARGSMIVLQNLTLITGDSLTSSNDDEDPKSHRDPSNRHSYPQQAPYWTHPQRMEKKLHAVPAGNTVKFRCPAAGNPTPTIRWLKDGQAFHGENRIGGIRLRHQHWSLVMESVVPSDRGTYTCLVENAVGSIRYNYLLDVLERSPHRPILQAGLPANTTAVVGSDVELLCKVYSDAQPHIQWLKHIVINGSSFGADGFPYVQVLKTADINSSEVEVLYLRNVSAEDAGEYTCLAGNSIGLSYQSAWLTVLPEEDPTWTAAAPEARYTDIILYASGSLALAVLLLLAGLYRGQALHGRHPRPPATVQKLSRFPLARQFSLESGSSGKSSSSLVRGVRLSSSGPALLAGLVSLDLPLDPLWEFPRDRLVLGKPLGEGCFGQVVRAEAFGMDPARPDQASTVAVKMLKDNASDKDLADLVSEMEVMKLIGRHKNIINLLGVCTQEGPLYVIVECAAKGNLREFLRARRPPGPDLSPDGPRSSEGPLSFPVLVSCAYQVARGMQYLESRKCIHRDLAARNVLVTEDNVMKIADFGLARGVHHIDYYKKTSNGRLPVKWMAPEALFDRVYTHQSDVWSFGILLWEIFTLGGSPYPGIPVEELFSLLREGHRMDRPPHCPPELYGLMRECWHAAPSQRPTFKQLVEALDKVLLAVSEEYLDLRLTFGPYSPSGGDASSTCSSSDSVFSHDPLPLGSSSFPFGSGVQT
Phosphatidylinositol 4,5-bisphosphate 3-kinase catalytic subunit alpha isoform (Homo sapiens), P42336 [H1047Y], sequence (P42336 whole entry H1047Y, canonical isoform): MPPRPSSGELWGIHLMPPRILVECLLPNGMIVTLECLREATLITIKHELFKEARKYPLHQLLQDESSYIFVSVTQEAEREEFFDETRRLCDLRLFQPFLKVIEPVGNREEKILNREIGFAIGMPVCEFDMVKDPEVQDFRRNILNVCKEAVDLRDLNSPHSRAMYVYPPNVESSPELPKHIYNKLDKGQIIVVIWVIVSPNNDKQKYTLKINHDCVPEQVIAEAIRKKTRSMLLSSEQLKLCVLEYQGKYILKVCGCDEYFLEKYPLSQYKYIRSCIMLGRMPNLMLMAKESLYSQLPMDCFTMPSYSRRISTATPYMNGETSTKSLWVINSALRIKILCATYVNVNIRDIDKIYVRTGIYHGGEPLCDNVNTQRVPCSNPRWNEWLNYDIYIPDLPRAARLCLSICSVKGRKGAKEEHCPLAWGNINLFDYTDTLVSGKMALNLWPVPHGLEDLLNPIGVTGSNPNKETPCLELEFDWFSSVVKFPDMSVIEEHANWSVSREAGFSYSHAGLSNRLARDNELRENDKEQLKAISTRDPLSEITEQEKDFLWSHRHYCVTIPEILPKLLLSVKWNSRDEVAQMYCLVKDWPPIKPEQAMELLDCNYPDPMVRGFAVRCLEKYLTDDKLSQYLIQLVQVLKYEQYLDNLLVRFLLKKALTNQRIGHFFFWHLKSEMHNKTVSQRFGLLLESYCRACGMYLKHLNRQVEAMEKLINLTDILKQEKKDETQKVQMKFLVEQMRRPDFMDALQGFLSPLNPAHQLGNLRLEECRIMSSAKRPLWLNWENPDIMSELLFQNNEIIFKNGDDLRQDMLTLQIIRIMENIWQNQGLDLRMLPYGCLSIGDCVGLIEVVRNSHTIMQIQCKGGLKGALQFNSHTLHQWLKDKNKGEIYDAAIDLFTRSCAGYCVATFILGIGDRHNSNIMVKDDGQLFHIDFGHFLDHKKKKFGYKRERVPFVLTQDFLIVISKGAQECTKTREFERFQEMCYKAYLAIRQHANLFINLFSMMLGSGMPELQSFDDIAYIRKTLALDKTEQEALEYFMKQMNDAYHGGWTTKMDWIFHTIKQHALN

Compound: O=C(NOC[C@H](O)CO)c1ccc(F)c(F)c1Nc1ccc(I)cc1F
- % of control [1]: 100%

Compound: CNC(=O)Nc1ccc(-c2nc(N3CC4CCC(C3)O4)c3cnn(C4CCC5(CC4)OCCO5)c3n2)cc1
- % of control [2]: 62%

- % of inhibition ([3]; at 0.01 µM): 1.9%
- % of inhibition ([3]; at 0.04 µM): -4%
- % of inhibition ([3]; at 0.2 µM): 12.3%
- % of inhibition ([3]; at 1 µM): -8.5%
- % of inhibition ([3]; at 5 µM): 6.3%
- % of inhibition ([4]; at 0.01 µM): -6%
- % of inhibition ([4]; at 0.04 µM): -6.7%
- % of inhibition ([4]; at 0.2 µM): -1.9%
- % of inhibition ([4]; at 1 µM): 8.1%
- % of inhibition ([4]; at 5 µM): 18.5%
- % of inhibition ([5]; at 0.01 µM): -0.6%
- % of inhibition ([5]; at 0.04 µM): 7%
- % of inhibition ([5]; at 0.2 µM): 14.4%
- % of inhibition ([5]; at 1 µM): 4.9%
- % of inhibition ([5]; at 5 µM): -6.3%
- % of inhibition [6]: 10.8%
Compound: CC[C@@H]1[C@H](F)C(=O)N[C@@H]1COc1nccc2cc(C(N)=O)c(OC)cc12 [ZIMLOVISERTIB]

Compound: COCC(=O)NC/C=C/c1ccc2ncnc(Nc3ccc(Oc4ccc(C)nc4)c(C)c3)c2c1 [CP-724714]
- % of control [7]: 47%

Compound: C=CC(=O)Nc1cc(-n2c(=O)ccc3cnc4ccc(-c5ccc(NS(C)(=O)=O)cc5)cc4c32)ccc1C
- % of control ([8]; at 1 µM): 100%
- % of control ([8]; at 10 µM): 76%

Compound: Cc1cc([C@@H](C)Nc2ccccc2C(=O)O)c2nc(N3CCOCC3)cc(=O)n2c1 [AZD-6482]
- % of control [9]: 100%
